Reference: patent US8410044B2, “Bacitracin antibiotics” (Xellia Pharmaceuticals Aps, priority 2009, dated 2013)
Where a SMILES comes first, the peptide text is derived from it. Bridges are numbered along the chain shown (N, C = ends). [ ]: non-standard residue; d: D form. The star is where a group is joined. X2 = CCC(C)C(N)C1=NC(C(=O)*)CS1; Orn = NCCC[CH](N)C(=O)O

System: Micrococcus luteus
Experiment: Potency (specific antibacterial activity): agar plate inhibition zones compared with Bacitracin Zinc standard
Format: cell-based
Conditions: calculated from potency of sample A and its 93% area-% content
Experimental: Potency is the in vitro antibacterial activity. It can be measurered and expressed as IU/mg. The antibacterial activity of samples A, B′ and C′ (see Table 1) was measured. The specific antibacterial activity (listed here as IU/mg), often termed potency, was measured by comparing the antibacterial activity of the unknown sample with known (standard) samples. Specifically, a Bacitracin Zinc standard was dissolved and diluted to 2.0, 1.0, and 0.5 IU bacitracin/ml in 0.07 M phosphate buffer pH 6.0. These three standard solutions were added to agar plates inoculated with the test organism, Micrococcus luteus. The unknown samples were dissolved, diluted and added to the same plate as the standards. After 16-24 hours at 32-37 C, the inhibition zones were measured and the unknown samples were compared to the standards.

In the case of `CCC(C)C(N)C1=NC(C(=O)NC(CC(C)C)C(=O)NC(CCC(=O)O)C(=O)NC(C(=O)NC2CCCCNC(=O)C(CC(N)=O)NC(=O)C(CC(=O)O)NC(=O)C(Cc3c[nH]cn3)NC(=O)C(Cc3ccccc3)NC(=O)C(C(C)CC)NC(=O)C(CCCN)NC2=O)C(C)CC)CS1` (stereo not shown) [Bacitracin A] (X2-LEIK[Orn]IFHDN; lactam 4-C; configuration not given here), the “specific antibacterial activity of Bacitracin A, calculated from sample A (93% Bacitracin A by HPLC at 254 nm)” value is reported as 77.4 IU/mg.
